In patent US10017481B2, “Conformationally constrained, fully synthetic macrocyclic compounds” (POLYPHOR AG, priority 2012, dated 2018):
Each block holds one compound with its values, some of them ahead of it.

Columns and labels:
[1] = biological target: T1, Thyrotropin-releasing hormone receptor (TRH receptor) (Homo sapiens, UniProt P34981); assay: Ca2+ flux (FLIPR) assay, TRH receptor, agonist/antagonist mode; type: cell-based; details: antagonist mode
T1 construct: expressed in transfected cells; host or cells: Ca2+ optimized hematopoietic cell lines (rat)
T1 sequence (P34981 1-398): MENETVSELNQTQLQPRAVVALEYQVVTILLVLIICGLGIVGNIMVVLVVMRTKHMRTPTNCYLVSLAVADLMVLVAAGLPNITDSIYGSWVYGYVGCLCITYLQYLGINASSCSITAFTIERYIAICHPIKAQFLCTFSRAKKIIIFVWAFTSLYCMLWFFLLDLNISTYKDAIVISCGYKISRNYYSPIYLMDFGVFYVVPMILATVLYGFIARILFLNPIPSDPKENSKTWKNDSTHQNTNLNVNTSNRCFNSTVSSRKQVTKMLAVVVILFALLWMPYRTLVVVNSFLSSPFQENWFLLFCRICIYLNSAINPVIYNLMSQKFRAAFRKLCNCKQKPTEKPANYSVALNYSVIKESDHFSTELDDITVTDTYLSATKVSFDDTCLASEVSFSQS
Procedure: Biological and Pharmacological Methods 1. Ca^2+ Flux Assays for the GPCRs Oxytocin Receptor (OT Receptor), Thyrotropin-Releasing Hormone Receptor (TRH Receptor) and Bombesin Receptor Subtype 3 (BB3 Receptor)
Assays were performed on a FLIPR^TETRA fluorometric imaging plate reader (Molecular Devices) with ScreenWorks Version 2 (Molecular Devices) as device operating and data analysis software.
Dose dependent agonist and antagonist activities were determined. Percentage activation and percentage inhibition values were determined.
Percentage activation was determined upon initial addition of the sample compounds followed by 10 minutes' incubation at 25° C. Following compound incubation, reference agonists were added at EC80 to determine percentage inhibition.
Reference agonists were purchased from reputable commercial vendors and prepared according to each ligand's specifications. All handling of ligands were done to ensure proper control throughout the experiments.
Example compounds were weighed on a Microbalance (Mettler MX5) and dissolved in 100% DMSO to a final concentration of 2.5 mM and subsequently diluted into the assay buffer.
The assay buffer was a supplemented HBSS (Hank's Balanced Salt Solution). HBSS was supplemented with 20 mM HEPES (4-(2-hydroxyethyl)-piperazin-1-ethansulfonic acid) and 2.5 mM Probenecid (Sigma P8761).
GPCR assays were performed using Ca^2+ optimized hematopoietic cell lines (rat) with cultures never exceeding 90% confluency. Cells were harvested and seeded (from cultures at less than 90% confluency) at 50000 cells/well for a 96-well plate (12500 cells/well for 384). After seeding, the assay plates were incubated for 45 minutes at room temperature. After room temperature incubation, the assay plates were incubated at 37° C. 5% CO2 for 24 hours prior to assaying.
All GPCR assays were performed using Fluo-8 Ca^2+ dye.
Ca^2+ dye was prepared at 1× dye concentration in GPCR assay buffer. After 24 hours of incubation, cells were washed with GPCR assay buffer, and then Ca^2+-dye (100 μL/well) was added.
The plates were incubated for 90 minutes at 30° C. 5% CO2 prior to FLIPR assay.
Compound plates were prepared to add 50 μL/well during the agonist assay mode. During the FLIPR assay, 50 μL/well from the compound plate was diluted 3-fold into the existing 100 μL/well from the dye loading step. Therefore all compounds were prepared as 3× the final concentration desired in the assay.
After completion of the first single addition assay run, assay plate was removed from the FLIPR Tetra and placed at 25° C. for 7 minutes before antagonist assay.
Using the EC80 values determined during the agonist assay, all pre-incubated sample compound and reference antagonist (if applicable) wells were stimulated at the EC80 of the reference agonist. As reference ligands for these assays their obvious natural ligands oxytocin (OT), thyrotropin-releasing hormone (TRH) and bombesin (6-14) [BN(6-14)] were used.
After the addition of the reference agonist fluorescence was monitored for 180 sec using FLIPR Tetra.
From the FLIPR data, with negative control correction enabled, the maximum statistic for each well was exported and percentage activation relative to Emax control was calculated.

[2] = biological target: T2, human leukotriene B4 receptor (LTB4R) (Homo sapiens, UniProt Q15722); assay: Human LTB4 receptor cell-based assay (CHO mito-i-Photina, flash luminescence); details: antagonist mode
T2 construct: host or cells: CHO mito-i-Photina cells
T2 sequence (Q15722 whole entry): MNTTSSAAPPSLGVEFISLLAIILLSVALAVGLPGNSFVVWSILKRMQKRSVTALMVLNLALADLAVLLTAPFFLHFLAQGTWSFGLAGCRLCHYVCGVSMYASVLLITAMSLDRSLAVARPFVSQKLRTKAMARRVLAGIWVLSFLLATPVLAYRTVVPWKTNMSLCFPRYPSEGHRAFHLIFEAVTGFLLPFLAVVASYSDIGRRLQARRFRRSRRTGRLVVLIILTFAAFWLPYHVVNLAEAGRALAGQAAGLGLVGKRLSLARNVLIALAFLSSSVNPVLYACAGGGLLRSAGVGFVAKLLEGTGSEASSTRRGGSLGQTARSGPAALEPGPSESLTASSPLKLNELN
From the text: 3. Human LTB4 Receptor Cell-Based Assay
CHO mito-i-Photina® cells (Axxam SpA) stably expressing the human leukotriene B4 receptor (LTB4R) were used for monitoring activation of the target LTB4R, a GPCR (Gαq), by measuring the flash luminescence of Ca^2+ sensitive photoprotein as reporter system with FLIPR^TETRA screening instrumentation (Molecular Devices) upgraded with an ICCD Camera (MDC). For data quality check and data analysis a Genedata Screener 10.0.3 was used, and for curve fitting of reference agonist and antagonist GraphPad Prism Software.
The reference agonist LTB4 and antagonist U-75302 were purchased from reputable commercial vendors and prepared according to each ligand's specifications. All handling of ligands were done to ensure proper control throughout the experiments.
The steps of the implemented workflow and data analysis are mainly as follows:
mito-1-Photina cells are seeded (10000 c/w in 384 MTP; in complete medium 25 μL/well) for 24 hours, removed from the incubator, equilibrated at room temperature for 1 h, freed from the growth medium, loaded with 30 μL/well of Tyrode's buffer containing 10 μM coelenterazine, and incubated for 3 hours at rt.
All compounds were tested at 10 μM with triplicate data points.
After incubation, the volume in all the wells is flattened to 20 μL by aspiration with CyBi®-Vario pipettor. The First Injection (10 μL of test compounds or reference antagonist U-75302 in Tyrode's buffer+DMSO 0.5%) is performed by the FLIPR^TETRA and the kinetic response is monitored over a period of 120 seconds. Incubation at rt for 10 min. is followed by the Second Injection (15 μL of LTB4 at EC80 in Tyrode's buffer) and monitoring of the kinetic response over a period of 120 seconds.
The possible kinetic response is divided into two distinct phases: Monitoring the kinetic response after the First Injection is indicated as Compound Addition (CA) and measures the agonistic activity of compounds; monitoring the kinetic response after the Second Injection is indicated as Target Activation (TA) and measures the antagonistic activity of a compound.
The activity determination (IC50 determination) experiment is performed using LTB4 as agonist (100 nM corresponding to EC80). Selected compound are tested in 8 doses intraplate dose response with quadruplicate data points.

[3] = Plasma stability assay, human plasma; type: in vitro ADME
Summary of the method: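 Compounds at 10 μM were incubated at 37 °C in triplicate in sodium citrate-stabilized plasma (human, or pooled mixed-gender CD-1 mouse). Samples taken at 0–240 min were acetonitrile-quenched and analyzed by HPLC/MS/MS. Remaining peak area as % of t0 gave endpoint stability (%) and half-life (min).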

[4] = Metabolic stability assay, human liver microsomes; type: in vitro ADME; details: human microsomes, 10 μM, 37° C.
Summary of the method: (§1)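 Pooled human (50 donors, mixed gender) or CD-1 mouse microsomes at 1 mg/mL protein, 10 μM compound, 100 mM potassium phosphate with NADPH-regenerating system, 37 °C in duplicate. Samples at 0, 5, 10, 20, 60 min analysed by HPLC/MS/MS; turnover as % of 0-min value and T½ (min) calculated.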

[5] = Metabolic stability assay, CD-1 mouse microsomes; type: in vitro ADME; details: CD-1 mouse microsomes, 10 μM, 37° C.
Summary of the method: as §1

SMILES: O=C(CN1CCCC1)N[C@H]1C[C@H]2COc3cccc(c3)-c3ccccc3C(=O)NCC[C@@H](NC(=O)Cc3cccc4ccccc34)C(=O)N2C1 [Ex. 7, N-[(12R,16S,18S)-8,13-dioxo-16-{[2-(1-pyrrolidinyl)acetyl]amino}-20-oxa-9,14-diazatetracyclo[19.3.1.0^2,7.0^14,18]pentacosa-1(25),2,4,6,21,23-hexaen-12-yl]-2-(1-naphthyl)acetamide]
- IC50 [1]: 1.4 µM
- inhibition at 10 µM [1]: 91%

SMILES: O=C(CN1CCCC1)N[C@H]1C[C@H]2COc3cccc(c3)-c3ccccc3C(=O)NCC[C@@H](NC(=O)CC3CCCCC3)C(=O)N2C1 [Ex. 335, 2-cyclohexyl-N-[(12R,16S,18S)-8,13-dioxo-16-{[2-(1-pyrrolidinyl)acetyl]amino}-20-oxa-9,14-diazatetracyclo[19.3.1.0^2,7.0^14,18]pentacosa-1(25),2,4,6,21,23-hexaen-12-yl]acetamide]
- inhibition at 10 µM [1]: 34%

SMILES: O=C(CN1CCCC1)N[C@H]1C[C@H]2COc3cccc(c3)-c3ccccc3C(=O)NCC[C@@H](NC(=O)Nc3cccc4ccccc34)C(=O)N2C1 [Ex. 336, N-[(12R,16S,18S)-12-{[(1-naphthylamino)carbonyl]amino}-8,13-dioxo-20-oxa-9,14-diazatetracyclo[19.3.1.0^2,7.0^14,18]pentacosa-1(25),2,4,6,21,23-hexaen-16-yl]-2-(1-pyrrolidinyl)acetamide]
- IC50 [1]: 8.2 µM
- inhibition at 10 µM [1]: 48%

Results, then the compound that gave them:

- IC50 [2]: 1970 nM
- inhibition at 10 µM ([2]; 10 μM): 100%
- Plasma Stability 240 min hum [% remain.] ([3]; human plasma, 240 min, 10 μM, 37° C.): 100 % remain.
- half-life at 10 μM ([3]; human, plasma): > 240 min
- half-life at 10 μM ([4]; both sexes, liver microsomes, 1 mg/ml protein, read-out: Metabolic Stability T ½ [min] hum): > 60 min
- Metabolic Stability 60 min hum [% remain.] ([4]; 60 min): 53 % remain.
- Metabolic Stability 60 min mouse/(rat) [% remain.] ([5]; 60 min): 34 % remain.
- half-life at 10 μM ([5]; both sexes, 1 mg/ml protein, read-out: Metabolic Stability T ½ [min] mouse/(rat)): 40 min
SMILES: COc1ccc2c(c1)-c1cccc(c1)C(=O)N(C)[C@H](C(=O)NCc1cccnc1)CCC(=O)N[C@H](C)CO2 [Ex. 50, (10R,15S)-4-methoxy-10,16-dimethyl-12,17-dioxo-N-(3-pyridinylmethyl)-8-oxa-11,16-diazatricyclo[16.3.1.0^2,7]docosa-1(22),2,4,6,18,20-hexaene-15-carboxamide]

- inhibition at 10 µM [1]: 29%
SMILES: O=C(Cn1ccnc1)N[C@H]1C[C@H]2COc3cccc(c3)-c3ccccc3C(=O)NCC[C@@H](NC(=O)Cc3cccc4ccccc34)C(=O)N2C1 [Ex. 332, 2-(1H-imidazol-1-yl)-N-[(12R,16S,18S)-12-{[2-(1-naphthyl)acetyl]amino}-8,13-dioxo-20-oxa-9,14-diazatetracyclo[19.3.1.0^2,7.0^14,18]pentacosa-1(25),2,4,6,21,23-hexaen-16-yl]acetamide]

- inhibition at 10 µM [1]: 35%
SMILES: O=C(Cc1cccc2ccccc12)N[C@@H]1CCNC(=O)c2ccccc2-c2cccc(c2)OC[C@@H]2C[C@H](NC(=O)Nc3cccnc3)CN2C1=O [Ex. 333, N-[(12R,16S,18S)-8,13-dioxo-16-{[(3-pyridinylamino)carbonyl]amino}-20-oxa-9,14-diazatetracyclo[19.3.1.0^2,7.0^14,18]pentacosa-1(25),2,4,6,21,23-hexaen-12-yl]-2-(1-naphthyl)acetamide]

- inhibition at 10 µM [1]: 40%
SMILES: O=C(CN1CCCC1)N[C@H]1C[C@H]2COc3cccc(c3)-c3ccccc3C(=O)NCC[C@@H](NC(=O)Cc3cccc(Cl)c3)C(=O)N2C1 [Ex. 334, 2-(3-chlorophenyl)-N-[(12R,16S,18S)-8,13-dioxo-16-{[2-(1-pyrrolidinyl)acetyl]amino}-20-oxa-9,14-diazatetracyclo[19.3.1.0^2,7.0^14,18]pentacosa-1(25),2,4,6,21,23-hexaen-12-yl]acetamide]
